In patent US5591773A, “Inhibition of cataract formation, diseases resulting from oxidative stress, and HIV replication by caffeic acid esters” (priority 1994, dated 1997):
Several values for one entry are separate records, joined by “and”; a condition that tells them apart may be missing. Identical values can stand only once. Entries after “also recorded” stand apart in the source; their conditions may differ.

What was measured:
bovine lens (H2O2) = test: H2O2 formation in bovine lens; assay type: cell-based; settings: for H2O2 / increase in H2O2 concentration over control lenses: 24 h; for H2O2: mean of 3 ± SE
Description: (§1) B) Bovine Lens Bovine lenses were obtained from a New Jersey slaughterhouse 3 h after the animals were sacrificed. Lenses were immediately immersed in artificial aqueous humor (AAH; 130 mMNaCl, 5 mMKCl, 1 mM CaCl2, 0.5 mM MgCl2, 10 mM NaHCO3, 10 mM 4-(2-hydroxyethyl)-1-piperazineethanesulfonic acid (pH 7.3), and 2.5 mM D-glucose). Each of the bovine lenses in AAH (about 15 ml/lens) supplemented with 10 mM azide (a catalase inhibitor) was incubated with various amounts (0-1 μM) TPA at 37° C. for 24 h in the presence or absence of CAPE (1 μM), as described for use of other chemopreventive agents (31). For comparison, the lenses were also incubated with glucose (2.5 mM)/glucose oxidase (25 μM), a H2 O2 -generating system.
After incubation, lenses were homogenized in 15 ml of azide-supplemented AAH in a Waring Blender, and H2 O2 content was determined spectrofluorometrically, as described previously (55). Briefly, the homogenates were incubated with 2',7'-dichlorofluorescin diacetate, which is deacetylated by the esterase present in the homogenate. In the presence of HRPO, the nonfluorescent substrate was oxidized by H2 O2 generated in the lens to a highly fluorescent product, which was measured at excitation 475 nm and emission 525 nm (30, 31, 55). The amount of H2 O2 generated was determined from a standard curve, which was constructed by addition of increasing concentrations of H2 O2 to a homogenate derived from a control lens incubated only in AAH.

bovine lens (opacity) = test: TPA-induced opacity of bovine lens; assay type: cell-based; settings: 0.1 μM TPA, 24 h
Description: FIGS. 5A-5C. CAPE-mediated protection of bovine lens from TPA-induced opacity. Lenses were incubated with artificial aqueous humor only (FIG. 5A); incubated with 0.1 μM TPA (FIG. 5B); and pretreated with 1 μM CAPE for 30 min followed by 0.1 μM TPA (FIG. 5C) for 24 h. After incubation, the lenses were photographed against 3-mm grids.
as §1
In some experiments, at the end of incubation [lenses in (a) AAH only (controls), (b) AAH+0.1 μM TPA, and (c) AAH+1 μM CAPE (30 min)+0.1 μM TPA] at 37° C. for 24 h, the lenses were photographed against a 3-mm grid.

[1] = system: TPA-induced cataracts in eyes of rabbits; test: TPA-induced cataracts in rabbits in vivo; set-up: species or system white New Zealand rabbits; settings: for cataract appearance, rabbit No. 5 (in words): conclusion of the experiment; for cataract appearance, other test animals (in words): rabbit, in vivo
Description: B) Test animals. Six healthy young (6-8 weeks old) white New Zealand rabbits of both sexes were used for the experiments. Each animal had normal eyes as confirmed by ocular examination by slit lamp.
C) Treatment of animals and monitoring the eye alterations. Cataracts were induced by the direct application of both TPA and CAPE into the eye chamber. On every third day, 0.05 ml of the TPA solution (200 μg/ml PBS) was injected into the anterior chamber of both eyes via a puncture at the corneo-scleral limbus with a fine 0.3×42 mm needle joined to a tuberculin syringe. The animals were all given local anesthesia with HUMACAIN eye drops (human, Godollo, Hungary) under sterile conditions for each application. One hour after TPA was injected, 0.05 ml of the CAPE solution (50 μg/ml) was administered into the anterior chamber of only the left eye, as above. The right eye of each animal received no further treatment. This procedure was repeated a total of 16 times. Periodic ocular examinations by slit lamp were performed after the 6th, 12th, and final drug applications. Subsequently, examinations were made on the 10th and 23rd days after the last drug treatment. After each ocular examination, the physical findings were recorded and photodocumentation of the eye changes were performed. The photographic documentary was executed in the following manner. Firstly, lenses were illuminated by a fiber optic light source from behind and photographs were taken from a distance of 5-6 cm. The diapositive black and white images on paper were transferred into an IBM personal computer (system 2, model 30) using a Sony-2-Cue CCD video camera that was equipped with Fujinon TV zoom objective (1:1.8) via a 17.5-105 signal-transfer system. Finally, with these computer image reconstructions, the areas of the lens opacifications were delineated and quantified using the Olympus image analyzer C-2 morphometry version 2.2 program.

In the case of O=C(/C=C/c1ccc(O)c(O)c1)OCCc1ccccc1 [CAPE, Caffeic acid phenethyl ester], the H2O2 (bovine lens (H2O2); 1 μM CAPE 30 min then 0.1 μM TPA) is reported as 13.1 ± 1.3 µM, the “H2O2, % of change from control” value (bovine lens (H2O2); 1 μM CAPE/0.1 μM TPA) is reported as 110% and the inhibition at 1 µM (bovine lens (H2O2); Bos taurus, 1 μM CAPE 30 min, then 0.1 μM TPA 24 h, read-out: decline in TPA-induced H2O2 production) is reported as roughly 95%. The “prevention of lens opacification (in words)” value (bovine lens (opacity); 1 μM CAPE) was “almost completely prevented opacification of the lens; also recorded: suppressed formation of TPA-induced H2 O2 formation and opacification of lenses”, the “area of TPA-induced cataracts larger in eye without CAPE than in CAPE-injected eye” value ([1]; 5 of 6 animals) was 2.2-44.2 times and the “Size of cataract, CAPE (TPA + CAPE treated left eye)” value ([1]; CAPE 0.05 ml of 50 μg/ml 1 h after TPA, 16 times, one line per animal) was 1.428 relative units and 6.739 relative units and 10.77 relative units and 28.722 relative units and 30.199 relative units and 43.184 relative units. For the same molecule, the “cataract appearance, rabbit No. 5 (in words)” value [1] was “a small capsular-subcapsular immature cataract is evident”, the “Size of cataract, % of Control” value ([1]; left (TPA + CAPE) vs right (TPA) eye of the same animal, one line per animal) was 2.25% and 45.83% and 10.26% and 25.73% and 30.22% and 151.11% and the “lens appearance, effect of CAPE (in words)” value ([1]; left eye, intracameral CAPE after TPA) was “significantly clearer; also recorded: produced a prophylactic effect on incipient cataracts; also recorded: significantly reduced the pathological effects of this phorbol ester”. The “cataract appearance, other test animals (in words)” value [1] was “generally smaller and more immature” and the “animals with smaller cataract in CAPE-treated eye” value ([1]; rabbits, termination of the experiment) was 5 out of the 6.

For CCCCCCCCCCCCCC(=O)O[C@@H]1[C@@H](C)[C@@]2(O)[C@@H](C=C(CO)C[C@]3(O)C(=O)C(C)=C[C@@H]23)[C@@H]2C(C)(C)[C@]12OC(C)=O [TPA, 12-O-tetradecanoylphorbol-13-acetate], the “H2O2, % of change from control” value (bovine lens (H2O2); 0.01 μM TPA) was 95%, the H2O2 (bovine lens (H2O2); 0.01 μM TPA) was 11.3 ± 0.2 µM and the “H2O2, % of change from control” value (bovine lens (H2O2); 0.05 μM TPA) was 200%. The “increase in H2O2 concentration over control lenses” value (“increase in H2O2 concentration” for short) (bovine lens (H2O2); 0.05 μM TPA) was “about 2 fold”, the H2O2 (bovine lens (H2O2); 0.05 μM TPA) was 23.3 ± 1.3 µM and the “H2O2, % of change from control” value (bovine lens (H2O2); 0.10 μM TPA) was 360%. The “increase in H2O2 concentration” value (bovine lens (H2O2); 0.1 μM TPA) was roughly 3.5 fold, the H2O2 (bovine lens (H2O2); 0.10 μM TPA) was 42.7 ± 1.6 µM and the “H2O2, % of change from control” value (bovine lens (H2O2); 1.0 μM TPA) was 705%. The “increase in H2O2 concentration” value (bovine lens (H2O2); 1.0 μM TPA) was roughly 7 fold, the H2O2 (bovine lens (H2O2); 1.0 μM TPA) was 83.8 ± 5.6 µM and the “lens opacity (in words)” value (bovine lens (opacity)) was “caused opacity of the lens”. The “Size of cataract, Control (TPA-treated right eye)” value ([1]; TPA 0.05 ml of 200 μg/ml into anterior chamber every third day, 16 times, one line per animal) was 63.139 relative units and 14.704 relative units and 104.97 relative units and 111.62 relative units and 99.923 relative units and 28.578 relative units, the “induction of cataracts in live rabbits (in words)” value ([1]; TPA injected into anterior chamber) was “Cataracts of various sizes and types were evident by ocular examination in both eyes starting after the 12th TPA injection; also recorded: potent inducer of cataracts in the eyes of live rabbits” and the “cataract appearance, rabbit No. 5 (in words)” value [1] was “a rather large arched subcortical condensed immature but developing cataract is evident”. The “cataract appearance, other test animals (in words)” value [1] was “larger, more mature cataracts that had spread deeply into the nuclear region”.
